What was measured:
FSHD muscle cells = assay: DUX4-fl mRNA RT-PCR in FSHD muscle cells treated with MAO inhibitors; format: cell-based, human; settings: for abundance of DUX4-fl mRNA: quantitative RT-PCR, FIG. 4
Source text: Middle panel is a no RT control and bottom panel is a GAPDH loading control.

[1] = test system: control human primary myoblasts; assay: Expression microarray of primary myoblasts transduced with lentivirus carrying DUX4-fl, DUX4-s or GFP
Description: Primary human myoblasts were collected and cultured as previously described (Snider et al., 2010). Primary myoblasts were maintained at or below 70% confluency for proliferation. For differentiation, cells were allowed to reach 95-100% confluency in growth medium. Once confluency was reached, the cells were changed to differentiation medium (F10 media supplemented with 1% horse serum, 10 μg/mL insulin, and 10 μg/mL transferrin, penicillin/streptomycin) and maintained for 4 days. Human RD cells were grown in DMEM in 10% bovine calf serum (Hyclone) and penicillin/streptomycin. The primary myoblasts were transduced with lentivirus carrying DUX-fl, DUX4- or GFP (MOI=15).
Expression microarrays were performed on the transduced cells at 24 hours after transduction as follows. […] Samples were analyzed by Illumina Human Whole Genome microarrays. Probe intensities were corrected, normalized, and summarized by the Lumi package of Bioconductor (Du et al., 2008). Differentially expressed genes were identified by the LIMMA package of Bioconductor (Wettenhall and Smyth, 2004). Gene set enrichment analysis (GSEA) was performed using the Bioconductor GOstats package (Falcon and Gentleman, 2007).

FSHD fibroblasts = assay: DUX4 mRNA decay with cycloheximide in FSHD fibroblasts with inducible MyoD; format: cell-based, human; settings: 38 hours in differentiation conditions, MyoD induction
Description: FSHD fibroblasts expressing low amounds of DUX4 mRNA were stably transduced with a beta-estradiol inducible MyoD so that addition of beta-estradiol will convert them to skeletal muscle, which after 96 hours of induction increases the steady-state levels of the DUX4 mRNA and activates expression of the MyoD target Mgn. […] Washout of the chx results in the rapid loss of the DUX4 mRNA, disappearing between 2 and 8 hrs of washout. The loss of DUX4 mRNA is associated with its translation since the DUX4 target PRAME 1 is induced as the DUX4 mRNA disappears.

HCT116 cells = assay: RT-PCR of DUX4-fl and cancer testis antigens in HCT116 cells treated with azacytidine; format: cell-based, human
Description: The relative expression of the CTA in each row was measured by RT-PCR and represented as high (light shading) or low (dark shading).

Human FSHD myoblasts = assay: siRNA knock-down of UPF1 in FSHD myoblasts; format: cell-based
Description: Method for transfection of myoblasts with siUPF1 (siRNA against UPF1): Human FSHD myoblasts were plated for transfection at 30% confluency in F10 media containing 20% FBS and no antibiotics. siRNA targeting siUPF1 (ThermoScientific) was transfected at 100 nM final concentration using Lipofectamine 2000 according to manufacturers protocol. siLuciferase was used as a negative control. Following overnight incubation of cells with transfection complexes the cells were washed with PBS and fed fresh growth media: F10 media, 20% FBS, dexamethasone (1 uM) and fgf (10 ng/ml). When cultures reached confluency growth media was replaced with serum free differentiation media (F10 media, insulin and transferrin at 10 ug/ml each) and culture continued for 48 hours. Total RNA was isolated using Qiagen RNeasy columns and analysis for expression of Dux4 mRNA and for target gene activation was performed.

C#CCN(C)Cc1ccccc1 [pargyline, N-Benzyl-N-methylprop-2-yn-1-amine]
DUX4 mRNA expression (FSHD muscle cells; RT-PCR, 48 hours in differentiation medium, varying amounts, FIG. 5): dose-dependent inhibition of DUX4 expression | abundance of DUX4-fl mRNA (FSHD muscle cells): decreases the abundance of DUX4-fl mRNA in a dose-dependent manner

N[C@@H]1C[C@H]1c1ccccc1 (racemic) [tranylcypromine]
abundance of DUX4-fl mRNA (FSHD muscle cells): had no inhibitory effect

DUX4
Fc range ([1]; Family with sequence similarity 90: FAM90A1, FAM90A2P, FAM90A6P, FAM90A7): 9-19 | Fc range ([1]; KH homology domain containing family: KHDC1, KHDC1L): 108-258 | Fc range ([1]; Methyl-binding protein-like family: MBD3L2, MBD3L3, MBD3L5): 197-310 | Fc range ([1]; Preferentially expressed in melanoma family: PRAMEF1, PRAMEF2, PRAMEF4-15, PRAMEF17, PRAMEF20): 9-269 | Fc range ([1]; Ret-finger Protein-like family: RFPL1, RFPL1S, RFPL2, RFPL3, RFPL4A, RFPL4B): 20-336 | Fc range ([1]; Tripartite motif-containing family: TRIM43, TRIM48, TRIM49, TRIM53, TRIM64): 27-235 | Fc range ([1]; Zinc finger and SCAN domain containing family: ZSCAN4, ZSCAN5B, ZSCAN5D): 13-320

C[C@@H]1C[C@@H]([C@H](O)CC2CC(=O)NC(=O)C2)C(=O)[C@@H](C)C1 [cycloheximide]
DUX4 mRNA (FSHD fibroblasts): significant increase in DUX4 mRNA

Nc1ncn([C@@H]2O[C@H](CO)[C@@H](O)[C@H]2O)c(=O)n1 [5-azacytidine]
expression of cancer testis antigens (HCT116 cells; RT-PCR heat map FIG. 3, HCT116 cells): robust induction | DUX4-fl expression (HCT116 cells; RT-PCR, HCT116 cells): induces the expression of DUX4-fl

GAUGCAGUUCCGCUCCAUUUU [siUPF1]
expression of DUX4 target gene ZSCAN4 (Human FSHD myoblasts; RT-qPCR): increases | DUX4 mRNA (Human FSHD myoblasts; semiquantitative RT-PCR, differentiation medium, vs siluc): at higher levels

Reference: US20140242093A1, “METHODS AND COMPOSITIONS FOR MODULATING THE INNATE IMMUNE RESPONSE AND/OR MYOGENESIS IN A MAMMALIAN SUBJECT” (FRED HUTCHINSON CANCER RESEARCH CENTER, priority 2011, published 2014)
